Tests used:
MIA PaCa-2 cells = experiment: Growth inhibition activity on KRAS-G12C mutant cell line (MIA PaCa-2), CellTiter-Glo 3D; format: cell-based, human; conditions: MIA PaCa-2, 3-day culture with compound
Summary of the method: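 Cells in RPMI1640 with 10% FBS were seeded in U-bottom plates and cultured 1 day at 37 °C, 5% CO2, then exposed to compound (0.2% DMSO final) for 3 more days. Viability read by CellTiter-Glo 3D luminescence; IC50 from growth inhibition relative to untreated wells.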

[1] = target: T1, interaction between recombinant K-Ras4B G12C mutant protein and cRAF RAS-binding domain (cRAF-RBD) (Homo sapiens, UniProt P01116, G12C); experiment: Inhibitory activity on interaction between KRAS G12C and cRAF (Alpha technology); format: biochemical; conditions: GMPPNP-bound KRAS G12C incubated with compound at 25° C. for 1 hour, then cRAF-RBD; Alpha signal
T1 construct: made in house; host or cells: E. coli
Summary of the method: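 GMPPNP-loaded His-tagged KRAS G12C (aa 1-169, E. coli) preincubated with compound 1 h at 25° C in Tris pH 7.5, 100 mM NaCl, 1 mM MgCl2, TCEP, 0.1% Tween 20; cRAF-RBD (aa 50-132) added, 1.5 h RT, Alpha signal read. DMSO = 0%, GDP-bound KRAS = 100% inhibition; IC50 from dose titration fit.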

[2] = target: Gppcp-bound recombinant K-Ras4B G12C mutant protein (amino acids 1-169, C51S/C80L/C118S) (Homo sapiens, UniProt P01116, C118S/C51S/C80L/G12C); experiment: KRASG12C binding assay (LC-MS, compound binding rate); conditions: test compound final concentration 0.5 μM, 25° C., 1 hour
Summary of the method: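 Gppcp-bound K-Ras4B G12C (1-169; C51S/C80L/C118S), 50 nM in TBS with 0.1 mM TCEP, 0.25 mM MgCl2, 50 μM Gppcp, exposed to compound at 0.5 μM final for 1 h at 25 °C. Quenched with formic acid and analysed by intact-protein ESI LC-MS. Binding rate is the mono-adduct signal over total KRAS signal; graded A (≥80%) to E (<20%).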

IC50 (MIA PaCa-2 cells; Homo sapiens, MIA PaCa-2, 72 h) [nM]	IC50 [1] [nM]	IC50 (MIA PaCa-2 cells) [nM]	SMILES	binding rate [2]
400	71		Cc1nc2cc(-c3cccn4c(C(=O)c5cc(F)c(NC(=O)/C=C/CNC6CCCCC6O)c(F)c5)ccc34)c(C(F)(F)F)cc2n1C (stereo not drawn) [Example 63, (E)-N-(4-(8-(1,2-dimethyl-6-(trifluoromethyl)-1H-benzo[d]imidazol-5-yl)indolizine-3-carbonyl)-2,6-difluorophenyl)-4-((2-hydroxycyclohexyl)amino)but-2-enamide]	A (A binding rate of 80% or more is rated “A”)
32	52		COc1cc2c(ncn2C)c(Cl)c1-c1cccn2c(C(=O)c3cc(F)c(NC(=O)/C=C/CN[C@H]4CC[C@H](OC)CC4)c(F)c3)ccc12 (single isomer, unassigned) [Example 41-1, (E)-N-(4-(8-(4-chloro-6-methoxy-1-methyl-1H-benzo[d]imidazol-5-yl)indolizine-3-carbonyl)-2,6-difluorophenyl)-4-(((1r,4r)-4-methoxycyclohexyl)amino)but-2-enamide]	A (A binding rate of 80% or more is rated “A”)
	40	24	COc1cc2c(nc(C)n2C)c(Cl)c1-c1cccn2c(C(=O)c3cc(F)c(NC(=O)/C=C/CNC(C)(C)C)c(F)c3)ccc12 (single isomer, unassigned) [Example 36-1, (E)-4-(tert-butylamino)-N-(4-(8-(4-chloro-6-methoxy-1,2-dimethyl-1H-benzo[d]imidazol-5-yl)indolizine-3-carbonyl)-2,6-difluorophenyl)but-2-enamide]	B (a binding rate of 60% or more and less than 80% is rated “B”)
23	22		COc1cc2c(nc(C)n2C)c(F)c1-c1cccn2c(C(=O)c3cc(F)c(NC(=O)/C=C/CN[C@H]4CC[C@H](OC)CC4)c(F)c3)ccc12 [Example 44]	A (A binding rate of 80% or more is rated “A”)
300	75		Cc1nc2cc(-c3cccn4c(C(=O)c5cc(F)c(NC(=O)/C=C/CNC(C)(C)CF)c(F)c5)ccc34)c(C(F)(F)F)cc2n1C [Example 76, (E)-N-(4-(8-(1,2-dimethyl-6-(trifluoromethyl)-1H-benzo[d]imidazol-5-yl)indolizine-3-carbonyl)-2,6-difluorophenyl)-4-((1-fluoro-2-methylpropan-2-yl)amino)but-2-enamide]	A (A binding rate of 80% or more is rated “A”)
90.4	78.9		CO[C@H]1CC[C@H](NC/C=C/C(=O)Nc2c(F)cc(C(=O)c3ccc4c(-c5c(C(F)(F)F)cc6c(nc(C)n6C)c5Cl)cccn34)c(F)c2F)CC1 [Example 104, (E)-N-(4-(8(4-chloro-1,2-dimethyl-6-(trifluoromethyl)-1H-benzo[d]imidazol-5-yl)indolizine-3-carbonyl)-2,3,6-trifluorophenyl)-4-(((1r,4r)-4-methoxycyclohexyl)amino)but-2-enamide]	A (A binding rate of 80% or more is rated “A”)
91	58		COc1cc2c(cc1-c1cccn3c(C(=O)c4cc(F)c(NC(=O)/C=C/CN[C@H]5CC[C@H](OC)CC5)c(F)c4)ccc13)ncn2C [Example 1, (E)-N-(2,6-difluoro-4-(8-(6-methoxy-1-methyl-1H-benzo[d]imidazol-5-yl)indolizine-3-carbonyl)phenyl)-4-(((1r,4r)-4-methoxycyclohexyl)amino)but-2-enamide]	A (A binding rate of 80% or more is rated “A”)
100	22		CCc1cc(C(=O)c2cc(F)c(NC(=O)/C=C/CN[C@H]3CC[C@H](OC)CC3)c(F)c2)n2cccc(-c3c(C)cc4c(nc(C)n4C)c3Cl)c12 [Example 89, (E)-N-(4-(8-(4-chloro-1,2,6-trimethyl-1H-benzo[d]imidazol-5-yl)-1-ethylindolizine-3-carbonyl)-2,6-difluorophenyl)-4-(((1r,4r)-4-methoxycyclohexyl)amino)but-2-enamide]	A (A binding rate of 80% or more is rated “A”)
200	97		Cc1nc2cc(-c3cccn4c(C(=O)c5cc(F)c(NC(=O)/C=C/CN[C@@H]6CCC[C@@H](F)C6)c(F)c5)ccc34)c(C(F)(F)F)cc2n1C (racemic) [Example 90, (E)-N-(4-(8-(1,2-dimethyl-6-(trifluoromethyl)-1H-benzo[d]imidazol-5-yl)indolizine-3-carbonyl-2,6-difluorophenyl)-4-(((1R,3R)-3-fluorocyclohexyl)amino)but-2-enamide and (E)-N-(4-(8-(1,2-dimethyl-6-(trifluoromethyl)-1H-benzo[d]imidazol-5-yl)indolizine-3-carbonyl)-2,6-difluorophenyl)-4-(((1S,3S)-3-fluorocyclohexyl)amino)but-2-enamide]	A (A binding rate of 80% or more is rated “A”)
96	71		C#Cc1cc(C(=O)c2cc(F)c(NC(=O)/C=C/CN[C@H]3CC[C@H](OC)CC3)c(F)c2)n2cccc(-c3c(C)cc4c(nc(C)n4C)c3Cl)c12 [Example 100]	A (A binding rate of 80% or more is rated “A”)
280	83		Cc1nc2cc(-c3cccn4c(C(=O)c5cc(F)c(NC(=O)/C=C/CN[C@@H]6CCC[C@H](F)C6)c(F)c5)ccc34)c(C(F)(F)F)cc2n1C (racemic) [Example 94, (E)-N-(4-(8-(1,2-dimethyl-6-(trifluoromethyl)-1H-benzo[d]imidazol-5-yl)indolizine-3-carbonyl)-2,6-difluorophenyl)-4-(((1R,3S)-3-fluorocyclohexyl)amino)but-2-enamide and (E)-N-(4-(8-(1,2-dimethyl-6-(trifluoromethyl)-1H-benzo[d]imidazol-5-yl)indolizine-3-carbonyl)-2,6-difluorophenyl-4-(((1S,3R)-3-fluorocyclohexyl)amino)but-2-enamide]	A (A binding rate of 80% or more is rated “A”)
	23	72	CCc1cc2c(nc(C)n2C)c(Cl)c1-c1cccn2c(C(=O)c3cc(F)c(NC(=O)/C=C/CN[C@H]4CC[C@H](OC)CC4)c(F)c3)ccc12 (single isomer, unassigned) [Example 22-1, (E)-N-(4-(8-(4-chloro-6-ethyl-1,2-dimethyl-1H-benzo[d]imidazol-5-yl)indolizine-3-carbonyl)-2,6-difluorophenyl)-4-(((1r,4r)-4-methoxycyclohexyl)amino)but-2-enamide]	A (A binding rate of 80% or more is rated “A”)
	200	310	CO[C@H]1CC[C@H](NC/C=C/C(=O)Nc2c(F)cc(C(=O)c3ccc4c(-c5c(C)cc6c(ncn6C)c5C)cccn34)cc2F)CC1 (single isomer, unassigned) [Example 34-2, (E)-N-(2,6-difluoro-4-(8-(1,4,6-trimethyl-1H-benzo[d]imidazol-5-yl)indolizine-3-carbonyl)phenyl)-4-(((1r,4r)-4-methoxycyclohexyl)amino)but-2-enamide]	B (a binding rate of 60% or more and less than 80% is rated “B”)

Source: US20240246968A1, “SMALL MOLECULE INHIBITORS OF KRAS G12C MUTANT” (Merck Sharp & Dohme LLC, priority 2021, published 2024)
